Read-outs that look alike come from different tables or passages of the source.
How the values were obtained:
[1] = test system: Pyricularia oryzae; assay type: in vivo, Pyricularia oryzae on rice plants (variety Tainong 67); settings: field, natural infection
[2] = test system: Pyricuaria oryzae; assay type: in vivo, Pyricuaria oryzae on rice plants (variety Tainong 67); settings: field, natural infection

Row | Compound | Efficacy % 15 days after first application ([1]; application rate 25 g ai/ha) [%] | Efficacy % 15 days after first application ([1]; application rate 50 g ai/ha) [%] | Efficacy % 15 days after first application ([1]; application rate 75 g ai/ha) [%] | Efficacy % 22 days after first application ([2]; application rate 25 g ai/ha) [%] | Efficacy % 22 days after first application ([2]; application rate 50 g ai/ha) [%] | Efficacy % 22 days after first application ([2]; application rate 75 g ai/ha) [%] | Efficacy % 15 days after first application ([1]; application rate 100 g ai/ha) [%] | Efficacy % 22 days after first application ([2]; application rate 100 g ai/ha) [%] | Efficacy % 22 days after first application ([2]; application rate 200 g ai/ha) [%]
1 | Fc1ccc([C@]2(Cn3cncn3)O[C@H]2c2ccccc2Cl)cc1 (racemic) [Epoxiconazole (EPX), epoxiconazole] | 17.7 | 24.1 | 35.1 | 1.2 | 0.0 | 5.6 |  |  | 
2 | Cc1cccc2sc3nncn3c12 [Tricyclazol, tricyclazole] |  |  |  |  |  |  | 34.9 | 5.6 | 0.0

Source: patent US20130090360A1 (priority 2010, published 2013)
